These are literature values, as cited in patent publication US12502339B2, “Foam compositions” (The Procter & Gamble Company, priority 2021, dated 2025).

Each structure is given as a SMILES string.

The conditions of the data set: in water.
Turning to `CCCC` [Butane], the “Water solubility at 20° C. (weight percent)” value is given as less than 0.01% weight percent. As to `O=C=O` [Carbon dioxide], the “Water solubility at 20° C. (weight percent)” value is recorded as 0.8% weight percent. `COC` [Dimethyl ether]: the “Water solubility at 20° C. (weight percent)” value is recorded as 7% weight percent.

For `[He]` [Helium], the “Water solubility at 20° C. (weight percent)” value is less than 0.01 weight percent. For `CC(C)C` [Isobutane], the “Water solubility at 20° C. (weight percent)” value is recorded as less than 0.01% weight percent. Regarding `[N-]=[N+]=O` [Nitrous oxide], the “Water solubility at 20° C. (weight percent)” value is listed as 0.12 weight percent.
